Experimental data published in US8603467B2 (priority 2007, dated 2013).

Columns and labels:
[1] = system: 8G9 ascites (HI activity for Ck/HKYU22/02 virus); type: biochemical
[2] = system: 8G9/HRP (binding to virus strain Ck/HK/Yu22/02)

For H T P C D T R D C V L R [G2], the HI blocking effect [1] was “could clearly block” and the “Competition with avian influenza virus for 8G9/HRP” value [2] was “had competition activity”.
